In patent US10173991B2, “Sulfone amide linked benzothiazole inhibitors of endothelial lipase” (BRISTOL-MYERS SQUIBB COMPANY, priority 2014, dated 2019) one finds IC50 data, which are given here for 24 molecules.

Sequence of Endothelial lipase (EL) (Q9Y5X9 21-500): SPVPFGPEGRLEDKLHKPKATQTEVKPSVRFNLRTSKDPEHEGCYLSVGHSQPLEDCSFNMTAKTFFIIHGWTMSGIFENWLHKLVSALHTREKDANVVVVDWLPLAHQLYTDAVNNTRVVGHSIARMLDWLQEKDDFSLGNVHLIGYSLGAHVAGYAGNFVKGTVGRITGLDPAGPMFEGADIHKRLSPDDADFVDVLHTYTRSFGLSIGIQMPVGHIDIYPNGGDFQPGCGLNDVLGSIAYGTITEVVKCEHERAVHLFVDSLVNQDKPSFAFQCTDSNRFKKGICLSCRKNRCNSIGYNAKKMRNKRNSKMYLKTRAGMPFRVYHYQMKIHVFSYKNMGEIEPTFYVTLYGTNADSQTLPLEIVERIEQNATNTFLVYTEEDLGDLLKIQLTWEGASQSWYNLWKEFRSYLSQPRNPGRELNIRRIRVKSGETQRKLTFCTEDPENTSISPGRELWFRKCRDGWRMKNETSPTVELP

This test concerns the target Endothelial lipase (EL) (Homo sapiens (Human), UniProt Q9Y5X9). The test is described as follows: Endothelial lipase (EL) enzymatic assay with fluorescent substrate A10070 in DMPG vesicles. Format: biochemical. The procedure:
Endothelial lipase (EL) and hepatic lipase (HL) activities were measured using a fluorescent substrate, A10070, (Invitrogen, CA) doped into an artificial vesicle containing DMPG (Avanti Polar Lipids) as the excipient. Vesicles were prepared by combining 571 μL of 29 mM DMPG in a 1:1 mixture of MeOH and CHCl3 with 2000 μL of 1 mM A10070 in a 1:1 mixture of MeOH and CHCl3. The mixture was dried under nitrogen in multiple vials then resuspended in 20 mL total volume of 50 mM HEPES pH 8.0 buffer containing 50 mM NaCl and 0.2 mM EDTA. The sample was allowed to sit at room temperature for 15 min and then was sonicated 3×4 mins on ice with a Branson Sonicator using duty cycle 1. This preparation provides vesicles with a mole fraction of 0.11 for the FRET substrate.
The enzymatic assay was measured using 384-well white Optiplates. Each well contained 20 μL of assay buffer (50 mM HEPES pH 8.0, 50 mM NaCl and 1 mM CaCl2) and 0.25 μL of a DMSO solution containing a compound of interest. EL or HL (10 μL) was added and allowed to incubate with the compound for 30 min at 37° C. The source of EL was conditioned media obtained from HT-1080 cells that were transformed using RAGE technology (Athersys) to overexpress endogenous EL, and HL was partially purified from conditioned media obtained from COS cells overexpressing HL. The reaction was started by the addition of 10 μL of a 1:10 dilution of vesicles. The final total reaction volume was […]. The reaction rates were measured on a Gemini plate reader with an excitation wavelength of 490 nm and an emission wavelength of 530 nm. Readings were taken over a period of 60 minutes, and the slope between 300 and 900 secs of the readout was used to calculate the rate of the reaction.
`COCCS(=O)(=O)C(C(=O)NCC(=O)NC1CC1)c1nc2ccc(-c3ccc(N(C)C(=O)OC)cc3)cc2s1` (stereo not drawn) [Example 25, methyl N-{4-[2-({[(cyclopropyl-carbamoyl)methyl]carbamoyl}(2-methoxyethane-sulfonyl)methyl)-1,3-benzothiazol-6-yl]phenyl}-N-methylcarbamate] showed an IC50 of 7 nM.

`COC(=O)Nc1ccc(-c2ccc3nc(C(C(=O)NCC(=O)NC4CC4)S(=O)(=O)CCC(F)(F)F)sc3c2)c(C)c1` (stereo not drawn) [Example 26] gave an IC50 of 7 nM.

For the molecule `COCCS(=O)(=O)C(C(=O)NCC(=O)NC1CC1)c1nc2ccc(-c3ccc(N(C)C(C)=O)cc3)cc2s1` (stereo not drawn) [Example 27, N-[(cyclopropyl-carbamoyl)methyl]-2-(2-methoxy-ethanesulfonyl)-2-{6-[4-(N-methylacetamido)phenyl]-1,3-benzothiazol-2-yl}acetamide], inhibition was half-maximal at 58 nM (IC50).

In turn, `CC(=O)N(C)c1ccc(-c2ccc3nc(C(C(=O)NCC(=O)NC4CC4)S(=O)(=O)CCC(F)(F)F)sc3c2)cc1` (stereo not drawn) [Example 28, N-[(cyclopropyl-carbamoyl)methyl]-2-{6-[4-(N-methylacetamido)phenyl]-1,3-benzothiazol-2-yl}-2-(3,3,3-trifluoropropane-sulfonyl) acetamide] gave an IC50 of 54 nM.

For `COC(=O)Nc1ccc(-c2ccc3nc(C(C(=O)NCC(=O)NC4CC4)S(C)(=O)=O)sc3c2)c(C)c1` (stereo not drawn) [Example 29, methyl N-{4-[2-({[(cyclopropyl-carbamoyl)methyl]carbamoyl} (methanesulfonyl)methyl)-1,3-benzothiazol-6-yl]-3-methylphenyl} carbamate], the IC50 is 20 nM.

In turn, `COCCS(=O)(=O)C(C(=O)NCC(=O)NC1CC1)c1nc2ccc(-c3ccc(NC(=O)OC)cc3C)cc2s1` (stereo not drawn) [Example 30, methyl N-{4-[2-({[(cyclopropy-lcarbamoyl)methyl]carbamoyl}(2-methoxyethane-sulfonyl)methyl)-1,3-benzothiazol-6-yl]-3-methylphenyl} carbamate] came in with an IC50 of 21 nM.

On to `CC(=O)N(C)c1ccc(-c2cc3sc(C(C(=O)NCC(=O)NC4CC4)S(C)(=O)=O)nc3cc2F)cc1` (stereo not drawn) [Example 31, N-[(cyclopropyl-carbamoyl)methyl]-2-{5-fluoro-6-[4-(N-methylacetamido)phenyl]-1,3-benzothiazol-2-yl}-2-methanesulfonyl-acetamide], for which the IC50 was 11 nM.

In turn, `COCCS(=O)(=O)C(C(=O)NCC(=O)NC1CC1)c1nc2cc(F)c(-c3ccc(N(C)C(=O)OC)cc3)cc2s1` (stereo not drawn) [Example 32, methyl N-{4-[2-({[(cyclopropyl-carbamoyl)methyl]carbamoyl}(2-methoxyethane-sulfonyl)methyl)-5-fluoro-1,3-benzothiazol-6-yl]phenyl}-N-methylcarbamate] gave an IC50 of 6 nM.

On to `COC(=O)N(C)c1ccc(-c2cc3sc(C(C(=O)NCC(=O)NC4CC4)S(=O)(=O)CCC(F)(F)F)nc3cc2F)cc1` (stereo not drawn) [Example 33, methyl N-{4-[2-({[(cyclopropyl-carbamoyl)methyl]carbamoyl}(3,3,3-trifluoropropane-sulfonyl)methyl)-5-fluoro-1,3-benzothiazol-6-yl]phenyl}-N-methylcarbamate], for which the IC50 was 4 nM.

As for `COC(=O)Nc1ccc(-c2cc3sc(C(C(=O)NCC(=O)NC4CC4)S(C)(=O)=O)nc3cc2F)c(C)c1` (stereo not drawn) [Example 34, methyl N-{4-[2-({[(cyclopropyl-carbamoyl)methyl]carbamoyl} (methanesulfonyl)methyl)-5-fluoro-1,3-benzothiazol-6-yl]-3-methylphenyl} carbamate], the IC50 was found to be 4 nM.

In turn, `COCCS(=O)(=O)C(C(=O)NCC(=O)NC1CC1)c1nc2cc(F)c(-c3ccc(NC(=O)OC)cc3C)cc2s1` (stereo not drawn) [Example 35, methyl N-{4-[2-({[(cyclopropyl-carbamoyl)methyl]carbamoyl}(2-methoxyethane-sulfonyl)methyl)-5-fluoro-1,3-benzothiazol-6-yl]-3-methylphenyl} carbamate] registered an IC50 of 8 nM.

`COCCOC(=O)Nc1ccc(-c2cc3sc(C(C(=O)NCC(=O)NC4CC4)S(C)(=O)=O)nc3cc2F)cn1` (stereo not drawn) [Example 36, 2-methoxyethyl N-{5-[2-({[(cyclopropyl-carbamoyl)methyl]carbamoyl} (methanesulfonyl)methyl)-5-fluoro-1,3-benzothiazol-6-yl]pyridin-2-yl}carbamate] came in with an IC50 of 11 nM.

Turning to `COCCOC(=O)Nc1ccc(-c2cc3sc(C(C(=O)NCC(=O)NC4CC4)S(=O)(=O)CCOC)nc3cc2F)cn1` (stereo not drawn) [Example 37, 2-methoxyethyl N-{5-[2-({[(cyclopropyl-carbamoyl)methyl]carbamoyl}(2-methoxyethane-sulfonyl)methyl)-5-fluoro-1,3-benzothiazol-6-yl]pyridin-2-yl} carbamate], the IC50 is 5 nM.

`CC(C)S(=O)(=O)C(C(=O)NCC(=O)NC1CC1)c1nc2cc(F)c(-c3ccc(NC(=O)OCc4ccccc4)cc3)cc2s1` (stereo not drawn) [Example 38, benzyl N-{4-[2-({[(cyclopropyl-carbamoyl)methyl]carbamoyl} (propane-2-sulfonyl)methyl)-5-fluoro-1,3-benzothiazol-6-yl]phenyl} carbamate] displayed an IC50 of 2 nM.

`CS(=O)(=O)C(C(=O)NCC(=O)NC1CC1)c1nc2cc(F)c(-c3cccc(Cl)c3)cc2s1` (stereo not drawn) [Example 39, 2-[6-(3-chlorophenyl)-5-fluoro-1,3-benzothiazol-2-yl]-N-[(cyclopropyl-carbamoyl)methyl]-2-methanesulfonyl-acetamide] displayed an IC50 of 3 nM. Against the preceding molecule, the IC50 is about 1.5-fold higher.

Take `COCCS(=O)(=O)C(C(=O)NCC(=O)NC1CC1)c1nc2cc(F)c(-c3cccc(Cl)c3)cc2s1` (stereo not drawn) [Example 40, 2-[6-(3-chlorophenyl)-5-fluoro-1,3-benzothiazol-2-yl]-N-[(cyclopropyl-carbamoyl)methyl]-2-(2-methoxyethane-sulfonyl)acetamide]: the IC50 came to 3 nM.

`CS(=O)(=O)C(C(=O)NCC(=O)NC1CC1)c1nc2cc(F)c(-c3ccc(C(=O)NCCC#N)cc3)cc2s1` (stereo not drawn) [Example 41, N-(2-cyanoethyl)-4-[2-({[(cyclopropyl-carbamoyl)methyl]carbamoyl} (methanesulfonyl)methyl)-5-fluoro-1,3-benzothiazol-6-yl]benzamide] displayed an IC50 of 5 nM.

Regarding `COCCS(=O)(=O)C(C(=O)NCC(=O)NC1CC1)c1nc2cc(F)c(-c3ccc(C(=O)NCCC#N)cc3)cc2s1` (stereo not drawn) [Example 42, N-(2-cyanoethyl)-4-[2-({[(cyclopropyl-carbamoyl)methyl]carbamoyl}(2-methoxyethane-sulfonyl)methyl)-5-fluoro-1,3-benzothiazol-6-yl] benzamide], the IC50 turned out to be 7 nM.

The molecule `CS(=O)(=O)Nc1ccc(-c2cc3sc(C(C(=O)NCC(=O)NC4CC4)S(=O)(=O)CCC(F)(F)F)nc3cc2F)cc1` (stereo not drawn) [Example 43, N-[(cyclopropyl-carbamoyl)methyl]-2-[5-fluoro-6-(4-methanesulfon-amidophenyl)-1,3-benzothiazol-2-yl]-2-(3,3,3-trifluoropropane-sulfonyl) acetamide] had an IC50 of 37 nM.

Consider `N#CCCNC(=O)c1ccc(-c2cc3sc(C(C(=O)NCC(=O)NC4CC4)S(=O)(=O)CCC(F)(F)F)nc3cc2F)cc1` (stereo not drawn) [Example 44, N-(2-cyanoethyl)-4-[2-({[(cyclopropyl-carbamoyl)methyl]carbamoyl}(3,3,3-trifluoropropane-sulfonyl)methyl)-5-fluoro-1,3-benzothiazol-6-yl] benzamide], for which 3 nM corresponded to half-maximal inhibition (IC50).

`CCS(=O)(=O)C(C(=O)NCC(=O)NC1CC1)c1nc2cc(F)c(-c3ccc(NC(=O)OCc4ccccc4)cc3)cc2s1` (stereo not drawn) [Example 45, benzyl N-{4-[2-({[(cyclopropyl-carbamoyl)methyl]carbamoyl} (ethanesulfonyl)methyl)-5-fluoro-1,3-benzothiazol-6-yl]phenyl} carbamate] displayed an IC50 of 3 nM.

For `O=C(CNC(=O)C(c1nc2cc(F)c(-c3ccc(NC(=O)OCc4ccccc4)cc3)cc2s1)S(=O)(=O)CCCC(F)(F)F)NC1CC1` (stereo not drawn) [Example 46, benzyl N-{4-[2-({[(cyclopropyl-carbamoyl)methyl]carbamoyl}(4,4,4-trifluorobutane-sulfonyl)methyl)-5-fluoro-1,3-benzothiazol-6-yl]phenyl}carbamate], the midpoint of inhibition, the IC50, lay at 2 nM. This IC50 is about 1.5-fold lower than that of the molecule before.

Molecule `N#CCS(=O)(=O)C(C(=O)NCC(=O)NC1CC1)c1nc2cc(F)c(-c3ccc(NC(=O)OCc4ccccc4)cc3)cc2s1` (stereo not drawn) [Example 47, benzyl N-(4-{2-[(cyanomethane-sulfonyl) ({[(cyclopropyl-carbamoyl)methyl]carbamoyl}methyl]-5-fluoro-1,3-benzothiazol-6-yl}phenyl) carbamate] showed an IC50 of 2 nM.

In the case of `CCCCCS(=O)(=O)C(C(=O)NCC(=O)NC1CC1)c1nc2cc(F)c(-c3ccc(NC(=O)OCc4ccccc4)cc3)cc2s1` (stereo not drawn) [Example 48, benzyl N-{4-[2-({[(cyclopropyl-carbamoyl)methyl]carbamoyl} (pentane-1-sulfonyl)methyl)-5-fluoro-1,3-benzothiazol-6-yl]phenyl}carbamate], half-maximal inhibition (IC50) required 1 nM. Against the preceding molecule, the IC50 is about 2-fold lower.
